Results reported in paper PMC6333442, “Conserved allosteric pathways for activation of TRPV3 revealed through engineering vanilloid-sensitivity” (eLife, 2019).

Tests used:
[1] = system: TRPV3-6M/V2P (pore domain of rat TRPV2 in TRPV3-6M); assay: Two-electrode voltage clamp, TRPV3-6M/V2P chimera in oocytes; assay type: cell-based, mouse; conditions: RR 50 µM
Method: All channel constructs were expressed in Xenopus laevis oocytes and studied using the two-electrode voltage clamp technique (TEVC) following 1–4 days of incubation after cRNA injection. The animal care and experimental procedures were performed in accordance with the Guide for the Care and Use of Laboratory Animals and were approved by the Animal Care and Use Committee of the National Institute of Neurological Disorders and Stroke (Animal protocol number 1253–17). Oocytes were removed surgically and incubated with agitation for 1 hr in a solution containing (in mM) 82.5 NaCl, 2.5 KCl, 1 MgCl2, 5 HEPES, pH 7.6 (with NaOH), and collagenase (2 mg/ml; Worthington Biochemical, Lakewood, NJ). Defolliculated oocytes were injected with cRNA for each of the constructs and incubated at 17°C in a solution containing (in mM) 96 NaCl, 2 KCl, 1 MgCl2, 1.8 CaCl2, 5 HEPES, pH 7.6 (with NaOH), and gentamicin (50 μg/ml, GIBCO-BRL, Gaithersburg, MD). Oocyte membrane voltage was controlled using an OC-725C oocyte clamp (Warner Instruments, Hamden, CT). Data were filtered at 1–3 kHz and digitized at 20 kHz using pClamp software (Molecular Devices, Sunnyvale, CA) and a Digidata 1440A digitizer (Axon Instruments). Microelectrode resistances were 0.1–1 MΩ when filled with 3 M KCl. For recording TRP channel currents, the external recording solution contained (in mM) 100 KCl, 10 HEPES, pH 7.6 (with KOH). […]
For temperature-activation experiments, calcium-activated chloride currents were minimized by using calcium-free solution containing 30 µM Caccinh-A01 and recording at negative membrane voltages. Heat stimuli were achieved by passing the external recording solution through glass capillary spirals immersed in a water bath maintained at about 70°C, and recordings were performed during constant perfusion with temperature measured using a thermistor (TA-29, Warner Instruments) located close to the cell. […] The mean I vs T relations were calculated by automatically binning each of the recordings in temperature intervals of 2°C, and averaging a single data point within each interval per cell. […]

TRPV3-6M + 5PM = target: T1, TRPV3-6M + 5PM (Mus musculus, UniProt Q8K424, A560T/A606V/F522S/F625L/F656I/F666Y/H523E/L557M/Q580E/V587L/W521Y); assay: Two-electrode voltage clamp, TRPV3-6M + 5PM in oocytes; assay type: cell-based; conditions: capsaicin 20 μM, ±60 mV
T1 construct: expressed in transfected cells; host or cells: Xenopus laevis oocytes
T1 sequence (Q8K424 1-791 W521Y/F522S/H523E/L557M/A560T/Q580E/V587L/A606V/F625L/F656I/F666Y): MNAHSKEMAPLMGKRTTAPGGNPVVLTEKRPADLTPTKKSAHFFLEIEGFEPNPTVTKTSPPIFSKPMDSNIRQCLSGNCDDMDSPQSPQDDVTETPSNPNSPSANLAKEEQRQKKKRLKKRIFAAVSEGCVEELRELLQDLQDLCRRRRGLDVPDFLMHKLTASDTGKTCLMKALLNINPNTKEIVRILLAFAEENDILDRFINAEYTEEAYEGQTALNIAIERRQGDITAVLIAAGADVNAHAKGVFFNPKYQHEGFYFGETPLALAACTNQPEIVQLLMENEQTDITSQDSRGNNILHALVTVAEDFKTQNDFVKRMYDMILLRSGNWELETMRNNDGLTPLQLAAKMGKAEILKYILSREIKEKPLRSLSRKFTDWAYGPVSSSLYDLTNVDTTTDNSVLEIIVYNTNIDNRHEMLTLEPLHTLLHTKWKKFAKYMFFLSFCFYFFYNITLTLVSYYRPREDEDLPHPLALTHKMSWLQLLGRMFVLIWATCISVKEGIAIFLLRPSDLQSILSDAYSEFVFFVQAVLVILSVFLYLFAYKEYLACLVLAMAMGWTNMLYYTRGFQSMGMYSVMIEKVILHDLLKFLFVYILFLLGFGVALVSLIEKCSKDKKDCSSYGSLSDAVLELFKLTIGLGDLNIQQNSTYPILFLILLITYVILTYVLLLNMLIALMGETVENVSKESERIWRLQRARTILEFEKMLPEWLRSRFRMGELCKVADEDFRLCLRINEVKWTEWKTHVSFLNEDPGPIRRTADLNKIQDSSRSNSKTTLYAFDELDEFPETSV
Method: All channel constructs were expressed in Xenopus laevis oocytes and studied using the two-electrode voltage clamp technique (TEVC) following 1–4 days of incubation after cRNA injection. The animal care and experimental procedures were performed in accordance with the Guide for the Care and Use of Laboratory Animals and were approved by the Animal Care and Use Committee of the National Institute of Neurological Disorders and Stroke (Animal protocol number 1253–17). Oocytes were removed surgically and incubated with agitation for 1 hr in a solution containing (in mM) 82.5 NaCl, 2.5 KCl, 1 MgCl2, 5 HEPES, pH 7.6 (with NaOH), and collagenase (2 mg/ml; Worthington Biochemical, Lakewood, NJ). Defolliculated oocytes were injected with cRNA for each of the constructs and incubated at 17°C in a solution containing (in mM) 96 NaCl, 2 KCl, 1 MgCl2, 1.8 CaCl2, 5 HEPES, pH 7.6 (with NaOH), and gentamicin (50 μg/ml, GIBCO-BRL, Gaithersburg, MD). Oocyte membrane voltage was controlled using an OC-725C oocyte clamp (Warner Instruments, Hamden, CT). Data were filtered at 1–3 kHz and digitized at 20 kHz using pClamp software (Molecular Devices, Sunnyvale, CA) and a Digidata 1440A digitizer (Axon Instruments). Microelectrode resistances were 0.1–1 MΩ when filled with 3 M KCl. For recording TRP channel currents, the external recording solution contained (in mM) 100 KCl, 10 HEPES, pH 7.6 (with KOH). Experiments were performed at room temperature (~22°C), except as indicated otherwise. […] Current time courses were obtained by stepping membrane voltage every 2 s from a holding potential of 0 mV to either −60 or +60 mV for 100 ms, and plotting the mean steady-state current at the end of each voltage step as a function of total recording time. I-V relations were obtained similarly, but voltage was stepped every 2 s to a different value, in 10 mV increments and starting at −60 mV.

Row | SMILES | block of RTx-activated current [1] | channel activation (current response) (TRPV3-6M + 5PM)
1 | N.N.N.N.N.N.N.N.N.N.N.N.N.N.[Cl-].[Cl-].[Cl-].[Cl-].[Cl-].[Cl-].[O-2].[O-2].[Ru+3].[Ru+3].[Ru+4] [RR, ruthenium red] | readily blocked | 
2 | COc1cc(CNC(=O)CCCC/C=C/C(C)C)ccc1O [capsaicin] |  | cannot be activated
